Experimental data published in patent US20240139210A1, “TREATMENT OF NF-KB-MEDIATED DISEASE” (ReveraGen BioPharma, Inc., priority 2020, published 2024).

Key:
[1] = test system: participants with DMD; assay: VBP15-LTE prespecified safety evaluation: height percentile for age and BMI; assay type: in vivo, human
Description: Standing height and weight were assessed at each study visit. Height z-score, body mass index (BMI; kg/m 2), and BMI z-score were calculated centrally. AE reporting was done per protocol in the vamorolone trials.
(§1) Participants in the corticosteroid-treated CINRG DNHS group were treated for at least 18 months, but the total duration, dose, and regimens varied.
Statistical analyses were done on paired longitudinal outcome data using an analysis of covariance (ANCOVA) approach with change from baseline (VBP15-002) to month 18 (midpoint of VBP15-LTE). Baseline response and age were included as covariates. For the vamorolone-treated participants, age was calculated as (date of informed consent minus birthdate)/365.25. For the DNHS participants, age was calculated as (date of baseline visit used minus birthdate)/365.25. The baseline visit for a DNHS participant was the first visit. […] Timed function tests were analyzed as velocity scores to limit the impact of participants who could not perform the test (velocity=0). Velocity measures are variance-stabilizing transformations, suppressing extreme raw outliers from raw values in seconds; these help with distributional assumptions of the statistical models/tests used. Raw data (seconds) are also reported. Velocity scores for TTSTAND (event/second), TTRW (meters/second), and TTCLIMB (event/second) were inputted as 0 at the first response missing due to inability to perform the test. All other data were observed values only, without imputation. No adjustments for multiplicity on inferential statistics were specified in the iSAP.

[2] = test system: boys with DMD; assay: CINRG 12-month prednisone clinical trial, external comparator; assay type: in vivo, human; conditions: vamorolone 18-month treatment versus prednisone trial 12-month treatment
Description: As with the CINRG DNHS comparators, group-matching criteria were prespecified in the iSAP, and 2 independent statisticians carried out the participant matching. […] There was no corresponding 12-month assessment in vamorolone-treated participants. (Assessments of vamorolone-treated trial participants were 0, 3, 6, and 18 months).
as §1

[3] = test system: ambulant boys aged 4 to <7 years with DMD; assay: VISION-DMD Phase 2b study VBP15-004, efficacy at 24 weeks; assay type: in vivo, human
Description: (§2) The second period of 24 weeks, where all participants receive vamorolone treatment on either of the two dose levels, will continue to capture additional longer-term safety and tolerability data.
The study met its primary endpoint of superiority in the change of time to stand from supine positioning to standing (TTSTAND) velocity with vamorolone 6 mg/kg/day versus placebo (p=0.002) with a treatment difference of 0.06 [95% CI: 0.02-0.10] rises/second from baseline. […] Any number p<0.05 is considered significant.

[4] = test system: ambulant boys aged 4 to <7 years with DMD; assay: VBP15-004 bone turnover biomarkers; assay type: in vivo, human; conditions: for CTX, difference vs. prednisone / Osteocalcin, difference vs. prednisone / P1NP, difference vs. prednisone: Week 24
[5] = test system: ambulant boys aged 4 to <7 years with DMD; assay: VBP15-004 adverse events; set-up: species or system human; conditions: in vivo
Source text: as §2
The study completion rate at 24 weeks was 94% (or 114 of 121 participants).
Pre-specified AESIs typically for corticosteroids were higher in prednisone-treated subjects than vamorolone-treated subjects after 24 weeks of treatment (Table 10).

[6] = test system: ambulant boys aged 4 to <7 years with DMD; assay: VBP15-004 growth (height Z scores); assay type: in vivo, human
Source text: as §2

[7] = 2.0 or 6.0 mg/kg/day for 18 months (groups C+D)
[8] = vamorolone 18 months versus corticosteroid-naïve DNHS

With `C[C@@H]1C[C@H]2[C@@H]3CCC4=CC(=O)C=C[C@]4(C)C3=CC[C@]2(C)[C@@]1(O)C(=O)CO` [Vamorolone, 17α,21-dihydroxy-16α-methylpregna-1,4,9(11)-triene-3,20-dione] the “Mean BMI z-score, 18-month value (SD)” value [1, 7] was 1.46 (0.62), the “Mean BMI z-score, change from baseline (SD)” value [1, 7] was 0.411 (0.615) and the “Mean height percentile for age, 18-month value (SD)” value [1, 7] was 35.24 percentile. For the same compound, the “Mean BMI z-score, change from baseline (SD)” value ([1]; 2.0 or 6.0 mg/kg/day for 18 months (groups C+D), listed as vamorolone) was 0.41, the “LS Mean change in height percentiles for age” value ([1]; DMD children, N 22, 18 months treatment) was “+6.9” and the “BMI change from baseline to 18 months of treatment” value (“BMI change from baseline” for short) ([1]; original dose group B (0.75 mg/kg/day, escalated)) was 0.5 kg/m 2. For the same compound, the “BMI change from baseline” value ([1]; original dose group C (2.0 mg/kg/day)) was 1.11 kg/m 2, the “BMI change from baseline” value ([1]; original dose group D (6.0 mg/kg/day)) was 2.55 kg/m 2 and the “Mean BMI z-score, LS mean difference (SE), ANCOVA” value [1, 8] was 0.899 (0.204). The “Mean height percentile for age, LS mean difference (SE), ANCOVA” value [1, 8] was 6.72 (3.48) percentile, the “Mean height percentile for age, LS mean difference (SE), ANCOVA” value [2] was 10.37 percentile and the “TTSTAND after treatment (baseline 6.0 seconds)” value ([3]; vamorolone 6 mg/kg/day) was 4.6 s. The “TTSTAND velocity, treatment difference versus placebo in change from baseline” value ([3]; vamorolone 6 mg/kg/day) was 0.06 rises/second, the “difference between vamorolone and prednisone across TTSTAND, 6MWT, TTRW endpoints” value ([3]; vamorolone 6 mg/kg/day vs prednisone 0.75 mg/kg/day) was “no statistically significant differences” and the “Osteocalcin, mean (SEM) change at Week 24” value ([4]; Vamorolone 2.0 mg (N = 17)) was 8.3 (3.1) ng/ml. The “Procollagen 1 N-Terminal Propeptide (P1NP), mean (SEM) change at Week 24” value ([4]; Vamorolone 2.0 mg (N = 17)) was 48 (27) ng/mL, the “Type I Collagen C-Telopeptides (CTX), mean (SEM) change at Week 24” value ([4]; Vamorolone 2.0 mg (N = 17)) was 177 (52) pg/mL and the “CTX, difference vs. prednisone” value ([4]; Vamorolone 2.0 mg) was 477 (p < 0.001) pg/mL. The “Osteocalcin, difference vs. prednisone” value ([4]; Vamorolone 2.0 mg) was 23.5 ng/mL, the “P1NP, difference vs. prednisone” value ([4]; Vamorolone 2.0 mg) was 182 ng/mL and the “Osteocalcin, mean (SEM) change at Week 24” value ([4]; Vamorolone 6.0 mg (N = 23)) was 1.7 (2.8) ng/ml. For the same compound, the “Procollagen 1 N-Terminal Propeptide (P1NP), mean (SEM) change at Week 24” value ([4]; Vamorolone 6.0 mg (N = 23)) was −11 (22) ng/mL, the “Type I Collagen C-Telopeptides (CTX), mean (SEM) change at Week 24” value ([4]; Vamorolone 6.0 mg (N = 23)) was 90 (44) pg/mL and the “CTX, difference vs. prednisone” value ([4]; Vamorolone 6.0 mg) was 390 (p < 0.001) pg/mL. For the same compound, the “Osteocalcin, difference vs. prednisone” value ([4]; Vamorolone 6.0 mg) was 16.9 ng/mL, the “P1NP, difference vs. prednisone” value ([4]; Vamorolone 6.0 mg) was 124 (p < 0.001) ng/mL and the “clinically relevant psychiatric events, subjects” value [5] was “no vamorolone-treated subjects”. The “moderate/severe behavior problems, subjects” value ([5]; male, human, 24 weeks) was 1.7%, the “change in height Z scores from baseline to Week 24” value ([6]; vamorolone 2.0 mg/kg/day) was “overall stable height change Z scores” and the “change in height Z scores from baseline to Week 24” value ([6]; vamorolone 6.0 mg/kg/day) was “increased growth rate”.
